Test results reported in PubChem BioAssay (NCI).
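Cells were grown in 96-well plates and exposed to each compound for 48 hours at five concentrations; endpoints were interpolated linearly between bracketing concentrations, or set to the highest concentration if not reached. TGI: concentration producing complete growth inhibition.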

Key:
Test in all cases: growth of human tumour cells (NCI), 48 h
786-0 renal = tested on: 786-0 renal
A498 renal = tested on: A498 renal
A549 NSCLC = tested on: A549 NSCLC
ACHN renal = tested on: ACHN renal
CAKI-1 renal = tested on: CAKI-1 renal
CCRF-CEM leukemia = tested on: CCRF-CEM leukemia
COLO 205 colon = tested on: COLO 205 colon
DLD-1 colon = tested on: DLD-1 colon
DMS 114 small cell lung = tested on: DMS 114 small cell lung
DMS 273 small cell lung = tested on: DMS 273 small cell lung
EKVX NSCLC = tested on: EKVX NSCLC
HCC-2998 colon = tested on: HCC-2998 colon
HCT-116 colon = tested on: HCT-116 colon
HCT-15 colon = tested on: HCT-15 colon
HL-60(TB) leukemia = tested on: HL-60(TB) leukemia
HOP-62 NSCLC = tested on: HOP-62 NSCLC
HOP-92 NSCLC = tested on: HOP-92 NSCLC
K-562 leukemia = tested on: K-562 leukemia
KM12 colon = tested on: KM12 colon
KM20L2 colon = tested on: KM20L2 colon
LOX IMVI melanoma = tested on: LOX IMVI melanoma
LXFL 529 NSCLC = tested on: LXFL 529 NSCLC
M14 melanoma = tested on: M14 melanoma
M19-MEL melanoma = tested on: M19-MEL melanoma
MOLT-4 leukemia = tested on: MOLT-4 leukemia
NCI-H460 lung = tested on: NCI-H460 lung
NCI-H522 lung = tested on: NCI-H522 lung
OVCAR-3 ovarian = tested on: OVCAR-3 ovarian
OVCAR-4 ovarian = tested on: OVCAR-4 ovarian
OVCAR-8 ovarian = tested on: OVCAR-8 ovarian
RPMI-8226 leukemia = tested on: RPMI-8226 leukemia
RXF 393 renal = tested on: RXF 393 renal
RXF-631 renal = tested on: RXF-631 renal
SF-268 CNS = tested on: SF-268 CNS
SF-295 CNS = tested on: SF-295 CNS
SK-MEL-2 melanoma = tested on: SK-MEL-2 melanoma
SK-MEL-28 melanoma = tested on: SK-MEL-28 melanoma
SK-MEL-5 melanoma = tested on: SK-MEL-5 melanoma
SK-OV-3 ovarian = tested on: SK-OV-3 ovarian
SN12C renal = tested on: SN12C renal
SNB-19 CNS = tested on: SNB-19 CNS
SNB-75 CNS = tested on: SNB-75 CNS
SNB-78 CNS = tested on: SNB-78 CNS
SR leukemia = tested on: SR leukemia
SW-620 colon = tested on: SW-620 colon
TK-10 renal = tested on: TK-10 renal
U251 CNS = tested on: U251 CNS
UACC-257 melanoma = tested on: UACC-257 melanoma
UACC-62 melanoma = tested on: UACC-62 melanoma
UO-31 renal = tested on: UO-31 renal
XF 498 CNS = tested on: XF 498 CNS
HOP-18 NSCLC = tested on: HOP-18 NSCLC
HT29 colon = tested on: HT29 colon
IGROV1 ovarian = tested on: IGROV1 ovarian
MALME-3M melanoma = tested on: MALME-3M melanoma
NCI-H226 lung = tested on: NCI-H226 lung
NCI-H23 lung = tested on: NCI-H23 lung
OVCAR-5 ovarian = tested on: OVCAR-5 ovarian
SF-539 CNS = tested on: SF-539 CNS

Compound: Cn1ccnc1Cn1cc(-c2cccc(-c3cn[nH]c3)c2)cn1
- TGI (786-0 renal): > 100 µM
- TGI (A498 renal): > 100 µM
- TGI (A549 NSCLC): > 100 µM
- TGI (ACHN renal): > 100 µM
- TGI (CAKI-1 renal): > 100 µM
- TGI (CCRF-CEM leukemia): > 100 µM
- TGI (COLO 205 colon): > 100 µM
- TGI (DLD-1 colon): > 100 µM
- TGI (DMS 114 small cell lung): > 100 µM
- TGI (DMS 273 small cell lung): > 100 µM
- TGI (EKVX NSCLC): 99.8 µM
- TGI (HCC-2998 colon): > 100 µM
- TGI (HCT-116 colon): > 100 µM
- TGI (HCT-15 colon): > 100 µM
- TGI (HL-60(TB) leukemia): > 100 µM
- TGI (HOP-62 NSCLC): > 100 µM
- TGI (HOP-92 NSCLC): > 100 µM
- TGI (K-562 leukemia): > 100 µM
- TGI (KM12 colon): > 100 µM
- TGI (KM20L2 colon): > 100 µM
- TGI (LOX IMVI melanoma): > 100 µM
- TGI (LXFL 529 NSCLC): > 100 µM
- TGI (M14 melanoma): > 100 µM
- TGI (M19-MEL melanoma): > 100 µM
- TGI (MOLT-4 leukemia): > 100 µM
- TGI (NCI-H460 lung): > 100 µM
- TGI (NCI-H522 lung): > 100 µM
- TGI (OVCAR-3 ovarian): > 100 µM
- TGI (OVCAR-4 ovarian): > 100 µM
- TGI (OVCAR-8 ovarian): > 100 µM
- TGI (RPMI-8226 leukemia): > 100 µM
- TGI (RXF 393 renal): > 100 µM
- TGI (RXF-631 renal): > 100 µM
- TGI (SF-268 CNS): > 100 µM
- TGI (SF-295 CNS): > 100 µM
- TGI (SK-MEL-2 melanoma): > 100 µM
- TGI (SK-MEL-28 melanoma): > 100 µM
- TGI (SK-MEL-5 melanoma): > 100 µM
- TGI (SK-OV-3 ovarian): 41.9 µM
- TGI (SN12C renal): > 100 µM
- TGI (SNB-19 CNS): > 100 µM
- TGI (SNB-75 CNS): > 100 µM
- TGI (SNB-78 CNS): > 100 µM
- TGI (SR leukemia): > 100 µM
- TGI (SW-620 colon): > 100 µM
- TGI (TK-10 renal): > 100 µM
- TGI (U251 CNS): > 100 µM
- TGI (UACC-257 melanoma): > 100 µM
- TGI (UACC-62 melanoma): 49 µM
- TGI (UO-31 renal): > 100 µM
- TGI (XF 498 CNS): > 100 µM

Compound: CCOC(=O)C(=O)Nc1cccc(Cl)c1C
- TGI (786-0 renal): > 100 µM
- TGI (A549 NSCLC): > 100 µM
- TGI (ACHN renal): > 100 µM
- TGI (CAKI-1 renal): > 100 µM
- TGI (CCRF-CEM leukemia): > 100 µM
- TGI (COLO 205 colon): > 100 µM
- TGI (DLD-1 colon): > 100 µM
- TGI (DMS 114 small cell lung): > 100 µM
- TGI (EKVX NSCLC): > 100 µM
- TGI (HCC-2998 colon): > 100 µM
- TGI (HCT-116 colon): > 100 µM
- TGI (HCT-15 colon): > 100 µM
- TGI (HL-60(TB) leukemia): > 100 µM
- TGI (HOP-18 NSCLC): > 100 µM
- TGI (HOP-62 NSCLC): > 100 µM
- TGI (HOP-92 NSCLC): > 100 µM
- TGI (HT29 colon): > 100 µM
- TGI (IGROV1 ovarian): > 100 µM
- TGI (K-562 leukemia): > 100 µM
- TGI (KM12 colon): > 100 µM
- TGI (LOX IMVI melanoma): > 100 µM
- TGI (LXFL 529 NSCLC): > 100 µM
- TGI (M14 melanoma): > 100 µM
- TGI (M19-MEL melanoma): > 100 µM
- TGI (MALME-3M melanoma): > 100 µM
- TGI (MOLT-4 leukemia): > 100 µM
- TGI (NCI-H226 lung): > 100 µM
- TGI (NCI-H23 lung): > 100 µM
- TGI (NCI-H460 lung): > 100 µM
- TGI (NCI-H522 lung): > 100 µM
- TGI (OVCAR-3 ovarian): > 100 µM
- TGI (OVCAR-4 ovarian): > 100 µM
- TGI (OVCAR-5 ovarian): > 100 µM
- TGI (OVCAR-8 ovarian): > 100 µM
- TGI (RPMI-8226 leukemia): > 100 µM
- TGI (RXF 393 renal): > 100 µM
- TGI (RXF-631 renal): > 100 µM
- TGI (SF-268 CNS): > 100 µM
- TGI (SF-295 CNS): > 100 µM
- TGI (SF-539 CNS): > 100 µM
- TGI (SK-MEL-2 melanoma): > 100 µM
- TGI (SK-MEL-28 melanoma): > 100 µM
- TGI (SK-MEL-5 melanoma): > 100 µM
- TGI (SK-OV-3 ovarian): > 100 µM
- TGI (SN12C renal): > 100 µM
- TGI (SNB-19 CNS): > 100 µM
- TGI (SNB-78 CNS): > 100 µM
- TGI (SW-620 colon): > 100 µM
- TGI (TK-10 renal): > 100 µM
- TGI (U251 CNS): > 100 µM
- TGI (UACC-257 melanoma): > 100 µM
- TGI (UACC-62 melanoma): > 100 µM
- TGI (UO-31 renal): > 100 µM
- TGI (XF 498 CNS): > 100 µM
